Assay results as given in patent US11591316B2, “Compounds, compositions, and methods” (DENALI THERAPEUTICS INC., priority 2016, dated 2023).

Assay: Metabolic stability in human liver microsomes
Format: in vitro ADME
Conditions: 1 μM compound, 0.5 mg/mL protein, projected hepatic clearance (well-stirred model), Table 5
Experimental: Metabolic stability of compounds was evaluated in human liver microsomes (from Corning or XenoTech, LLC) using a 96-well plate assay format. Compounds were incubated at 37° C. at 1 μM final concentration in the microsomal matrix (0.5 mg/mL total protein) in the presence or absence of NADPH cofactor. An NADPH regenerating system, comprised of NADP, MgCl2, isocitric acid, and isocitrate dehydrogenase, was used in the assay. Enzymatic reactions were conducted for 0, 5, 10, 20, 30, or 60 min before termination by addition of acetonitrile containing tolbutamide and labetalol internal standards (100 ng/mL). After shaking for 10 min, plates were subjected to centrifugation (4000 rpm at 4° C.) for 20 min and supernatants were mixed 1:3 with HPLC grade water. Samples were analyzed by LC-MS/MS using appropriate MRM transitions for each analyte and internal standard (IS). Analyte/IS peak area ratios were used to determine percent compound remaining at each time point. Intrinsic clearance (Clint; expressed as mL·min^−1·mg^−1) was calculated from the first order elimination constant (k, min^−1) of test article decay and the volume of the incubation. These values were scaled to intrinsic organ clearance (Clint) using human specific scaling factors (48.8 mg microsomal protein per g liver; 25.7 g liver per kg body weight). […]

Human liver microsomes CLhep | SMILES
0.75 mL/min/kg | [2H]C([2H])([2H])n1nc(C(C)(C)n2nccn2)cc1Nc1ncc(C(F)(F)F)c(NCC)n1 [Compound 34, N4-Ethyl-N2-[1-(^2H3)methyl-3-[2-(2H-1,2,3-triazol-2-yl)propan-2-yl]-1H-pyrazol-5-yl]-5-(trifluoromethyl)pyrimidine-2,4-diamine]
0 mL/min/kg | CNc1nc(Nc2cn(C(C)(C)c3ncn(C)n3)nc2C)ncc1C(F)(F)F [Compound 218]
